Laboratory results as given in patent publication US20200261584A1, “STABILIZED PROTEIN GEL PREPARATION” (TERUMO KABUSHIKI KAISHA, priority 2013, published 2020).

Assay: Oxidative stress, Example 29 (α-hANP, hydrogen peroxide, HPLC)
Format: physicochemical
Conditions: 0.1 mg/mL, solution E pH 4.8, 0.2% hydrogen peroxide, 37° C., one hour
Procedure: A gel preparation 29-48 of formulation 48 containing 0.1 mg/mL of α-hANP was prepared in an amount of 500 μL in a microtube, in the same manner as in the preparing method in (1) of Example 2, while using a solution E (pH 4.8) containing 37.5 mg/mL of D-mannitol and 5 mg/mL of glycine, in place of the solution A. Then, 50 μL of 0.2% hydrogen peroxide was added to the gel preparation, followed by incubation at 37° C. for one hour. Immediately after the incubation, 200 μL of 0.4 M methionine and 250 μL of water were added to the sample, and the gel preparation was disintegrated by a microspatula. The sample was then centrifuged, the supernatant was filtered through a membrane filter to remove aggregates, and the amount of α-hANP contained in the solution was determined by the HPLC method. Note that this experiment was conducted with N=2, and the remaining rate of α-hANP was expressed based on the starting amount. Besides, as a control, an α-hANP solution prepared by dissolving α-hANP in the solution E so as to obtain a concentration of 0.1 mg/mL was subjected to the same process as above, exclusive of the disintegrating operation by the microspatula.

CC[C@H](C)[C@@H]1NC(=O)[C@H](CCCNC(=N)N)NC(=O)[C@H](CC(=O)O)NC(=O)[C@H](CCSC)NC(=O)[C@H](CCCNC(=N)N)NC(=O)CNC(=O)CNC(=O)[C@H](Cc2ccccc2)NC(=O)[C@@H](NC(=O)[C@H](CO)NC(=O)[C@H](CO)NC(=O)[C@H](CCCNC(=N)N)NC(=O)[C@H](CCCNC(=N)N)NC(=O)[C@H](CC(C)C)NC(=O)[C@@H](N)CO)CSSC[C@@H](C(=O)N[C@@H](CC(N)=O)C(=O)N[C@@H](CO)C(=O)N[C@@H](Cc2ccccc2)C(=O)N[C@@H](CCCNC(=N)N)C(=O)N[C@@H](Cc2ccc(O)cc2)C(=O)O)NC(=O)CNC(=O)[C@H](CC(C)C)NC(=O)CNC(=O)[C@H](CO)NC(=O)[C@H](CCC(N)=O)NC(=O)[C@H](C)NC(=O)CNC1=O [α-hANP solution, α-human atrial natriuretic polypeptide]
Remaining rate of α-hANP after loaded with oxidative stress, run 1: 65.4%
Remaining rate of α-hANP after loaded with oxidative stress, run 2: 64.7%
